Data on nine molecules can be found in patent publication US20140005163A1 (NOVARTIS AG, priority 2010, published 2014).

One assay addresses T1, PI3K alpha (Homo sapiens, UniProt P42336).
T1 construct: p85(iSH2) fusion partner (see partner chain) (N); His tag (C); made in house; host or cells: baculovirus; Tn5 (Trichoplusia ni) or TiniPro insect cells
As to the kind of experiment: PI3K alpha kinase assay (Kinase-Glo luminescence). The assay is classed as biochemical. As for the experimental part: (§1) In a more preferred assay, the kinase reaction is performed in a final volume of 10 μL per well of a low volume non binding CORNING, 384 well black plate (Cat. No. #3676). The final concentrations of ATP and phosphatidyl inositol (PI) in the assay are 1 μM and 10 μg/mL respectively. The reaction is started by the addition of ATP.
(§2) The components of the assay are added per well as follows:
(§3) […] in 90% DMSO per well, in columns 1-20, 8 concentrations (1/3 and 1/3.33 serial dilution step) in single. • Low control: […] of 90% DMSO in half the wells of columns 23-24 (0.45% in final). • High control: […] of reference compound (e.g. compound of Example 7 in WO 2006/122806) in the other half of columns 23-24 (2.5 μM in final). • Standard: […] of reference compound as just mentioned diluted as the test compounds in columns 21-22 • 20 mL ‘buffer’ are prepared per assay: • 200 μL of 1M TRIS HCl pH7.5 (10 mM in final) • 60 μL of 1M MgCl2 (3 mM in final) • 500 μL of 2M NaCl (50 mM in final) • 100 μL of 10% CHAPS (0.05% in final) • 200 μL of 100 mM DTT (1 mM in final) • 18.94 mL of nanopure water • 10 mL ‘PI’ are prepared per assay: • 200 μL of 1 mg/ml L-alpha-Phosphatidylinositol (Liver Bovine, Avanti Polar Lipids Cat. No. 840042C MW=909.12) prepared in 3% OctylGlucoside (10 μg/ml in final) • 9.8 mL of ‘buffer’ • 10 mL ‘ATP’ are prepared per assay: • 6.7 μL of 3 mM stock of ATP giving a final concentration of 1 μM per well • 10 mL of ‘buffer’ • 2.5 mL of each PI3K construct are prepared per assay in ‘PI’ with the following final concentration: • 10 nM PI3K alfa EMV B1075 • 25 nM beta EMV BV949 • 10 nM delta EMV BV1060 • 150 nM gamma EMV BV950 • 5 μL of ‘PI/PI3K’ are added per well. • 5 μl ‘ATP’ are added per well to start the reaction. • The plates are then incubated at room temperature for 60 minutes (alfa, beta, delta) or 120 minutes (gamma). • The reaction is terminated by the addition of 10 μL Kinase-Glo (Promega Cat. No. #6714). • The assay plates are read after 10 minutes in Synergy 2 reader (BioTek, Vermont USA) with an integration time of 100 milliseconds and sensitivity set to 191. • Output: The High control is around 60'000 counts and the Low control is 30'000 or lower • This luminescence assay gives a useful Z′ ratio between 0.4 and 0.7
Two different constructs, BV 1052 and BV 1075, are used to generate the PI3 Kinase a proteins for compound screening.
(§4) IC50 is determined by a four parameter curve fitting routine that comes along with “excel fit”. […] Alternatively, IC50 values are calculated using idbsXLfit model 204, which is a 4 parameter logistic model.
A general note: Kinase-Glo reads ATP consumption through a luciferase reaction.

Assay [1] has as its system PKB Ser473 phosphorylation in Rat1-myr-HA-p110 beta cells. As to the kind of experiment: Reverse protein array assay, PKB Ser473 phosphorylation in Rat1-myr-p110 beta cells. Type of assay: cell-based. The note with it: 0.5 h, pAkt Ser473, 30 minutes incubation, read-out: p-PKB IC50. On the procedure:
(§5) The Rat1-myr-HA-p110 alpha, beta and delta cells were trypsinized and counted with a CASY TT cell counter (Schärfe System GmbH, Reutlingen Germany). […] The plates were incubated at 37° C. and 5% CO2 under humidified condition for at least 20 h. Compound of formula I working solutions were prepared freshly as serial 8 step dilutions (vol/vol) in DMSO on the day of the experiment. […] The final DMSO concentration was kept constant at 0.2%. cell culture medium containing 0.2% DMSO was used as vehicle treatment control. Post incubation, the cells were treated with the serial compound dilution. 50 μl of the compound medium mixture was added to the wells containing cells and 150 μl DMEM medium and incubated for 30 minutes (37° C., 5% CO2). After 30 minutes of incubation, the medium mixture was quickly removed by aspiration. […] 50 μl of the described lysis buffer mix was added to each well, followed by 10 minutes of incubation on ice.
(§6) The samples were spotted onto ZeptoMARKt PWG protein microarray chips (Zeptosens, Witterswil, Switzerland) with the piezoelectric microdispense-based, non-contact Nano-Plotter 2.1 (GeSiM, Grosserkmannsdorf, Germany). Each sample was spotted at 4 different sample concentrations (d1=100%, d2=75%, d3=50%, d4=25%) by diluting the cell lysate with the corresponding volume of lysis buffer mix. After spotting the ZeptoMARK® protein microarrays, the chips are incubated for 1 hour at 37° C. […] After 20 minutes of blocking the chips are extensively rinsed with deionized water (Milli-Q quality, 18MΩ×cm) and dried in a nitrogen air flow.
(§7) After incubation, the arrays were washed twice with 200 μl CAB1 buffer. […] The fluorescence signal was assessed with exposure times of 1, 3, 5 and 10 seconds, depending on the intensity of the signal. The resulting four images taken per array are stored as 16-bit TIF files.
(§8) The fluorescence images for each array were analyzed with the ZeptoVIEW Pro 2.0 software (Zeptosens, Witterswil, Switzerland) and the relative fluorescence intensity for each signal was calculated.

The test system of assay [2] is PKB Ser473 phosphorylation in Rat1-myr-HA-p110 alpha cells. As to the kind of experiment: Reverse protein array assay, PKB Ser473 phosphorylation in Rat1-myr-p110 alpha cells. Type of assay: cell-based. The note with it: 0.5 h, pAkt Ser473, 30 minutes compound incubation, read-out: p-PKB IC50. As for the experimental part: as §5, §6, §7, §8
A further assay deals with T2, mTOR (Homo sapiens, UniProt P42345).
T2 construct: purchased Invitrogen Corporation (Carlsbad/CA, USA) PV4753
T2 sequence (P42345 1360-2549 limits assumed): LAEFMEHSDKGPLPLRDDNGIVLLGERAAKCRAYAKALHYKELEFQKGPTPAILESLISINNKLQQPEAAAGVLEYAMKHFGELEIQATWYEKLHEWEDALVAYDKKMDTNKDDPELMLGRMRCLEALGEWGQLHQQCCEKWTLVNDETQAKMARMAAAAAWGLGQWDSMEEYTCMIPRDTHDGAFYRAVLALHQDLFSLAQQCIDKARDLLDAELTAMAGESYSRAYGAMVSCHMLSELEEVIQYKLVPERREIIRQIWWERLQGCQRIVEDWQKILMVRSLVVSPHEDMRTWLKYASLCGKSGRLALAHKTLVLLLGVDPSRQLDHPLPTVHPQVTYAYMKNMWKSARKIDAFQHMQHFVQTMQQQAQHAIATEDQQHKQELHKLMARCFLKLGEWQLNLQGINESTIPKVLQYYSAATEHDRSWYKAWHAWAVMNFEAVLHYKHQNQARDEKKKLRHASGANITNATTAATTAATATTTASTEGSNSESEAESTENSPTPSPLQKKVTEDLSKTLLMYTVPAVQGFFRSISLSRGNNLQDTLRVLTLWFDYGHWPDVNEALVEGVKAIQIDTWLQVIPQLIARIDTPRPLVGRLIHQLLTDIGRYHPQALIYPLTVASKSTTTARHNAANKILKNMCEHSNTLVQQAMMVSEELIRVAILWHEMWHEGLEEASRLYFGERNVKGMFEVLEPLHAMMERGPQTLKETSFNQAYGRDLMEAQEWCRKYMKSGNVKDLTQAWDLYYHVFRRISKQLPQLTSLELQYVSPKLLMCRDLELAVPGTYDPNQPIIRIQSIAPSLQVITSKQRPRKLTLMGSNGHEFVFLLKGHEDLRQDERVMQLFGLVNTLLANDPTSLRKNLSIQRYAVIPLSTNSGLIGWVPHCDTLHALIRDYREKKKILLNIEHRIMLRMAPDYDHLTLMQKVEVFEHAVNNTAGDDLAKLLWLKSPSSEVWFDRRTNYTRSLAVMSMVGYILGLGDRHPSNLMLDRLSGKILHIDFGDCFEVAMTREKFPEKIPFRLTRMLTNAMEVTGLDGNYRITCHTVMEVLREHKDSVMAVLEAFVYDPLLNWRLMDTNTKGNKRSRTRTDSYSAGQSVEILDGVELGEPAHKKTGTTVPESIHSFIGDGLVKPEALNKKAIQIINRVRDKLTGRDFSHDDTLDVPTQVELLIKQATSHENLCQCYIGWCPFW
As to the kind of experiment: Biochemical assay for m-TOR by TR-FRET. Conditions: 8 μM ATP, 400 nM GFP-4EBP1, 0.5 nM mTOR. As for the experimental part: Biochemical Assay for m-TOR by TR-FRET.
Assay components are purchased from Invitrogen Corporation (Carlsbad/CA, USA): GFP-4EBP1 (Cat. No. PV4759), Tb3+-α-p4EBP1 [pThr46] Antibody (Cat. No. PV4757), proprietary TR-FRET dilution buffer (Cat. No. PV3574), mTOR protein (Cat. No. PV4753).
Then 5 μL of ATP (8 μM final concentration) and GFP-4EBP1 (400 nM final concentration) with 5 μL mTOR proteins (0.5 nM final concentration) are incubated at rt. The standard reaction buffer for the TR-FRET mTOR assay contained 50 mM HEPES pH 7.5, 10 mM MnCl2, 50 mM NaCl, 1 mM EGTA, 1 mM DTT. Reactions were stopped with 10 μL of a mixture of EDTA containing the Tb3+-α-p4EBP1-[pT46] detection Ab (0.5 nM) in TR-FRET dilution buffer (proprietary to IVG). Plates are read 15 mins later in a Synergy2 reader using an integration time of 0.2 seconds and a delay of 0.1 seconds. […] A standard compound is used as a reference compound and included in all assay plates in the form of 16 dilution points in duplicate.
(TR-FRET usually uses a lanthanide donor and a delayed reading to cut background.)

The target in the next assay is T3, PI3K delta (Homo sapiens, UniProt O00329).
T3 construct: for the full-length p110-d subunit are generated and fused by overlapping PCR; p85(iSH2) fusion partner (see partner chain) (N); His tag (C); made in house; host or cells: baculovirus; Tn5 (Trichoplusia ni) or TiniPro insect cells
T3 sequence (O00329 with tags, fused parts or gaps limits assumed): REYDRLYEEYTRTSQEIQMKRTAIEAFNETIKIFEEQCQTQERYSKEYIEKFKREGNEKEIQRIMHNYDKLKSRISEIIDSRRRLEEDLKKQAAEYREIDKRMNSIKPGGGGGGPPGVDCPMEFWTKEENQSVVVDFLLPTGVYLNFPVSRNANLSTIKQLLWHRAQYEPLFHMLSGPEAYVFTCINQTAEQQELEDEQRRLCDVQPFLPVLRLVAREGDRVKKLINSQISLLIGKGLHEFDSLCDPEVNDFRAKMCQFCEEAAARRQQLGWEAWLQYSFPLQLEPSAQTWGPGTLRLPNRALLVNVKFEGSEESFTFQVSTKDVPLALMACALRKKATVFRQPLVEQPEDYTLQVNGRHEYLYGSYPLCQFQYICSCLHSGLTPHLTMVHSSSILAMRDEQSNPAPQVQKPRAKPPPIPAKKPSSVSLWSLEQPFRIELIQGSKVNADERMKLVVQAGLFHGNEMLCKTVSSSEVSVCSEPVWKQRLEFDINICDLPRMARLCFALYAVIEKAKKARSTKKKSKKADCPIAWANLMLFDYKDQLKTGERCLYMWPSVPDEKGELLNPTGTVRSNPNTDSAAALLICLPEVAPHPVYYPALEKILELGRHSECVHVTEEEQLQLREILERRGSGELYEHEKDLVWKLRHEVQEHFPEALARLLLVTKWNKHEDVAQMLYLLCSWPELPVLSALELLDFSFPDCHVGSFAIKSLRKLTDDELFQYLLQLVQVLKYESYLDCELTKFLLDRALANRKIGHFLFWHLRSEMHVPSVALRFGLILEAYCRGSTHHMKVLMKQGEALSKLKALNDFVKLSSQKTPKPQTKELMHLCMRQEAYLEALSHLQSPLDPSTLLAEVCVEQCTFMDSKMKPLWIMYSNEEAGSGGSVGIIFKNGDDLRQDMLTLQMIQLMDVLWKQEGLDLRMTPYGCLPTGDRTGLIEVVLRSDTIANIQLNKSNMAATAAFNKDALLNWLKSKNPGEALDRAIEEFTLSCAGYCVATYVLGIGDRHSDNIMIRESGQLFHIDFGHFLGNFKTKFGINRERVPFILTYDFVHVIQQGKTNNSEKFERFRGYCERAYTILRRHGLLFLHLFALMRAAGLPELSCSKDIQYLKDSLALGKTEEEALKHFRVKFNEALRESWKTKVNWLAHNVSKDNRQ
As to the kind of experiment: PI3K delta kinase assay (Kinase-Glo luminescence). The assay is classed as biochemical. On the procedure: as §1, §2, §3
PI3Kγ BV-1060 p85(iSH2)-Gly Linker-p110d(Full-Length)-C-Term his Tag
as §4

For assay [3], the system named is S6 Ribosomal Protein phosphorylation Ser235/236 in TSC1 null mouse embryo fibroblast (MEF) cells. As to the kind of experiment: Reverse protein array assay, S6 Ribosomal Protein phosphorylation Ser235/236 in TSC1 null MEF cells. The assay is classed as cell-based. Conditions: 1 h, pS6 ribosomal protein Ser235/236, 60 minutes incubation, read-out: p-S6 IC50. On the procedure: as §5, with “TSC1−/−” for “Rat1-myr-HA-p110 alpha, beta and delta”, “(Schirfe” for “(Schärfe”, “Working” for “Compound of formula I working”, “0.02%.” for “0.2%.”, “0.02%” for “0.2%”, “60” for “30”
The spotting of the chips follows the previous described method.

The test system of assay [4] is PKB Ser473 phosphorylation in Rat1-myr-HA-p110 delta cells. As to the kind of experiment: Reverse protein array assay, PKB Ser473 phosphorylation in Rat1-myr-p110 delta cells. The assay is classed as cell-based. The note with it: read-out: p-PKB IC50. As for the experimental part:
as §5, §6, §7, §8

One may read the IC50 as the concentration at which inhibition is half-maximal.

T1 sequence (P42336 with tags, fused parts or gaps limits assumed): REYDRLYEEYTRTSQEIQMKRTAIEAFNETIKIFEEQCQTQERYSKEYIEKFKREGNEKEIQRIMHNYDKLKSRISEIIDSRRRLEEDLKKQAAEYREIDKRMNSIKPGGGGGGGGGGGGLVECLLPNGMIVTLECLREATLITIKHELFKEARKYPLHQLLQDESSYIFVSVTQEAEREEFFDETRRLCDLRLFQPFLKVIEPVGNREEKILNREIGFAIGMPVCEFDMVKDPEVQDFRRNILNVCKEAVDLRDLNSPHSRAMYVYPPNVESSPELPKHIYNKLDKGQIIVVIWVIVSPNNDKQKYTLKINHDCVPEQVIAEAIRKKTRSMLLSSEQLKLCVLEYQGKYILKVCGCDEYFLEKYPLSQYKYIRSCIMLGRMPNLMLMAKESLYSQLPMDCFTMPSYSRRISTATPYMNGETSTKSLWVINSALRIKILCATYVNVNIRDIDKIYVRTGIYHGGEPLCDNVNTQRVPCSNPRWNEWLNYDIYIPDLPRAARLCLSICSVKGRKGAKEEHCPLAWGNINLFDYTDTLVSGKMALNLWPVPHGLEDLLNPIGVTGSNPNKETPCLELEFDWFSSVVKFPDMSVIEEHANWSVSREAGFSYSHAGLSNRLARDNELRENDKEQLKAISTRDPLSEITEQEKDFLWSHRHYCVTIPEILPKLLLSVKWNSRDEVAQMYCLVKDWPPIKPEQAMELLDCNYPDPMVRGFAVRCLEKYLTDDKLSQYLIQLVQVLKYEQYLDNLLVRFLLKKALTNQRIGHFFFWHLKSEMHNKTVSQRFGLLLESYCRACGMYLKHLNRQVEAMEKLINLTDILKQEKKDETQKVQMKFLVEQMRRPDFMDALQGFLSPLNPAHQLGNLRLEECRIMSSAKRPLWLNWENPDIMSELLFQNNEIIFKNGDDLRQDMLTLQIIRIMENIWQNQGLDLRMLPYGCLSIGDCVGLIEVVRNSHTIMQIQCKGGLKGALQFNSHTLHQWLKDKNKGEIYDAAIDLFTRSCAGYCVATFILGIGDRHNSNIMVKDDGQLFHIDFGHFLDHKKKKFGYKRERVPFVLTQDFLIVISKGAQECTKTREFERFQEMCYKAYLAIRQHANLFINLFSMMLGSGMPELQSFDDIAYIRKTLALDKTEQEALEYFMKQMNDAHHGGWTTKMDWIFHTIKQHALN

`CO[C@H]1CCN(c2ccc(-c3ccc4ncc5c(c4c3)n(-c3cn(C)nc3C)c(=O)n5C)cn2)C1` [Example 213.2, 1-(1,3-Dimethyl-1H-pyrazol-4-yl)-8-[6-((S)-3-methoxy-pyrrolidin-1-yl)-pyridin-3-yl]-3-methyl-1,3-dihydro-imidazo[4,5-c]quinolin-2-one]: the IC50 at PI3K alpha is 220 nM; in assay [1], 119 nM; in assay [2] it was 58 nM; on mTOR it was 123 nM; on PI3K delta it was 211 nM.

For `Cc1nn(CC(=O)N2CCN(C)CC2)cc1-n1c(=O)n(C)c2cnc3ccc(-c4cnc(N5CCCC5)nc4)cc3c21` [Example 247.5, 3-Methyl-1-{3-methyl-1-[2-(4-methyl-piperazin-1-yl)-2-oxo-ethyl]-1H-pyrazol-4-yl}-8-(2-pyrrolidin-1-yl-pyrimidin-5-yl)-1,3-dihydro-imidazo[4,5-c]quinolin-2-one], the IC50 on PI3K alpha was determined as 971 nM; in assay [3], 201 nM; in assay [2], 828 nM; at mTOR, 99 nM.

Take `Cc1nn(CC(=O)N2CCN(C)CC2)cc1-n1c(=O)n(C)c2cnc3ccc(-c4ccccc4)cc3c21` [Example 134, 3-Methyl-1-{3-methyl-1-[2-(4-methyl-piperazin-1-yl)-2-oxo-ethyl]-1H-pyrazol-4-yl}-8-phenyl-1,3-dihydro-imidazo[4,5-c]quinolin-2-one]: the IC50 turned out to be 543 nM at PI3K alpha and 100 nM at mTOR.

As to `COc1ccc(-c2ccc3ncc4c(c3c2)n(-c2cnn(C)c2C)c(=O)n4C)cc1OC` [Example 1.1, 8-(3,4-Dimethoxy-phenyl)-1-(1,5-dimethyl-1H-pyrazol-4-yl)-3-methyl-1,3-dihydro-imidazo[4,5-c]quinolin-2-one], the IC50 in assay [1] is 66 nM; in assay [4] it was 81 nM; in assay [3] it was 4 nM; in assay [2], 22 nM.

Consider `Cc1nn(C)cc1-n1c(=O)n(C)c2cnc3ccc(-c4ccc(NC5CCOCC5)nc4)cc3c21` [Example 214, 1-(1,3-Dimethyl-1H-pyrazol-4-yl)-3-methyl-8-[6-(tetrahydro-pyran-4-ylamino)-pyridin-3-yl]-1,3-dihydro-imidazo[4,5-c]quinolin-2-one], for which the IC50 was 608 nM in assay [1], 46 nM in assay [3] and 285 nM in assay [2].

Take `Cc1nn(C)cc1-n1c(=O)n(C)c2cnc3ccc(-c4ccc(-n5ccnc5C)nc4)cc3c21` [Example 78, 1-(1,3-Dimethyl-1H-pyrazol-4-yl)-3-methyl-8-[6-(2-methyl-imidazol-1-yl)-pyridin-3-yl]-1,3-dihydro-imidazo[4,5-c]quinolin-2-one]: the half-inhibitory concentration (IC50) in assay [1] is 386 nM; in assay [4], 959 nM; in assay [2] it was 264 nM.

For the molecule `CCOc1cc(-c2ccc3ncc4c(c3c2)n(-c2cn(C)nc2C)c(=O)n4C)cnc1OC` [Example 94, 1-(1,3-Dimethyl-1H-pyrazol-4-yl)-8-(5-ethoxy-6-methoxy-pyridin-3-yl)-3-methyl-1,3-dihydro-imidazo[4,5-c]quinolin-2-one], the results for the IC50 in assay [1], in assay [4] and in assay [2] were 11 nM, 9 nM and less than 5 nM, respectively.

On to `CCn1nccc1-n1c(=O)n(C)c2cnc3ccc(-c4ccc(N(C)C)nc4)cc3c21` [Example 4.8, 8-(6-Dimethylamino-pyridin-3-yl)-1-(2-ethyl-2H-pyrazol-3-yl)-3-methyl-1,3-dihydro-imidazo[4,5-c]quinolin-2-one], for which the IC50 in assay [1] was 154 nM; in assay [4], 278 nM; in assay [2], 158 nM; at mTOR, 251 nM.

On to `COc1ccc(-c2ccc3ncc4c(c3c2)n(-c2cn(C)nc2Cl)c(=O)n4C)cc1OC` [1.10—], for which the 50% inhibitory concentration (IC50) at mTOR is 14 nM.
